Format in all cases: cell-based
One assay deals with T1, human TLR7 (Homo sapiens, UniProt Q9NYK1).
T1 construct: host or cells: HEK-Blue cells
T1 sequence (Q9NYK1 27-1049): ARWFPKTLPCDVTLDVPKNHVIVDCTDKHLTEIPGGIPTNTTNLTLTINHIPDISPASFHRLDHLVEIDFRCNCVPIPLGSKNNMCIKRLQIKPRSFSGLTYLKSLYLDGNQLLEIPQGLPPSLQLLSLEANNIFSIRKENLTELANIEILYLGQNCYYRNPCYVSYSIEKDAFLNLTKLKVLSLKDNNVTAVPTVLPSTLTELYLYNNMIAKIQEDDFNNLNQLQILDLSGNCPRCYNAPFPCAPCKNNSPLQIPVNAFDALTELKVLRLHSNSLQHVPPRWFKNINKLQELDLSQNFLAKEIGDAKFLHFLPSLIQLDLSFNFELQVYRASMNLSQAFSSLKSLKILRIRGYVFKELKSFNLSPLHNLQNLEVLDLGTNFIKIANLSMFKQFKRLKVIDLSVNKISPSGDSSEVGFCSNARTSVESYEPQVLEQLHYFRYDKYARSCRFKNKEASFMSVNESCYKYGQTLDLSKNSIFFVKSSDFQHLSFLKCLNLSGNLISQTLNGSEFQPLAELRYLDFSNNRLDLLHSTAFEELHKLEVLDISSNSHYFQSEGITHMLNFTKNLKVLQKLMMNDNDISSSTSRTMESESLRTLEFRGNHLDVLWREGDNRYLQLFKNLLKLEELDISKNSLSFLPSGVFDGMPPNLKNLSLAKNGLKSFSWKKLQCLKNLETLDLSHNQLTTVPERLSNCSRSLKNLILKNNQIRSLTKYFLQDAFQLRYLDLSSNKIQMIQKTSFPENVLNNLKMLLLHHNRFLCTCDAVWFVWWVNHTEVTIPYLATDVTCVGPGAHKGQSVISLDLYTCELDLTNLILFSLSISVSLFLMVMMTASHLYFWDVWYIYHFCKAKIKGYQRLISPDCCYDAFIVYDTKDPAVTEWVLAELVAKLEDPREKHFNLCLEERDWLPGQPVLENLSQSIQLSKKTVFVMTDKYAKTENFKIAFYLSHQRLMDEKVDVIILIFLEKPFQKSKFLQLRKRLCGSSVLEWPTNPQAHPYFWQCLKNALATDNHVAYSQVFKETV
Put plainly: TLR7 inhibition reporter assay (HEK-Blue cells, SEAP reporter, gardiquimod stimulation). Particulars: HEK-Blue cells overexpressing human TLR7, SEAP reporter, gardiquimod 7.5 μM. In short, it runs like this:
(§1)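 SEAP readout after 22 h agonist exposure at 37 °C; final agonist levels were 7.5 μM gardiquimod (TLR7), 15.9 μM R848 (TLR8) and 5 nM ODN2006 (TLR9). Inhibitors, spanning 0.05 nM to 50 μM final, were applied 30 min beforehand.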

For another assay, the target named is T2, human TLR8 (Homo sapiens, UniProt Q9NR97).
T2 construct: host or cells: HEK-Blue cells
T2 sequence (Q9NR97 27-1041): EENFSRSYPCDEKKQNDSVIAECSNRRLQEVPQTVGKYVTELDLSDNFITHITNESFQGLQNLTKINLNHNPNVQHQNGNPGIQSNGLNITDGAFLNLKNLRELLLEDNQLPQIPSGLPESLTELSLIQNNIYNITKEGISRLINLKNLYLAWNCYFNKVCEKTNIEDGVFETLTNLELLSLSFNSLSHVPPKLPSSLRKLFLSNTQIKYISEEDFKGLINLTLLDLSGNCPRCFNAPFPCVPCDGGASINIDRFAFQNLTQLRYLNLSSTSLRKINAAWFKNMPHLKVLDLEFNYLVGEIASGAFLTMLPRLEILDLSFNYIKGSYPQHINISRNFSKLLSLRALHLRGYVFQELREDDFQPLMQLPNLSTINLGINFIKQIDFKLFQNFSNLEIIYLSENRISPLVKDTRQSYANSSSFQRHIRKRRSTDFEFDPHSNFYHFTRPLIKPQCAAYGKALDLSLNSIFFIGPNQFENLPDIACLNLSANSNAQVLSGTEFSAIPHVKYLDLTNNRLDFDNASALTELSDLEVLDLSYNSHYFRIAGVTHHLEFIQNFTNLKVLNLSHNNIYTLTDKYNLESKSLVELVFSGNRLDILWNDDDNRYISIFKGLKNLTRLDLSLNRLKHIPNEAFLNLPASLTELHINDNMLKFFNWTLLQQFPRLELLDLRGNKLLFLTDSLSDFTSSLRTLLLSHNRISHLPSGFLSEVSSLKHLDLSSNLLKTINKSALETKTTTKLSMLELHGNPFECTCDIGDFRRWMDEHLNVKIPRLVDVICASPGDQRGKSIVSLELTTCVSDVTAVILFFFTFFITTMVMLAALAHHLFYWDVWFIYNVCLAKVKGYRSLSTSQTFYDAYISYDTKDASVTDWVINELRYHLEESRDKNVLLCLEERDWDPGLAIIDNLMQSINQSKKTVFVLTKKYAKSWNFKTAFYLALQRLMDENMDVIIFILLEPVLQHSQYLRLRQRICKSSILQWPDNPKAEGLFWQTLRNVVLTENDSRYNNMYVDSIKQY
Put plainly: TLR8 inhibition reporter assay (HEK-Blue cells, SEAP reporter, R848 stimulation). Particulars: HEK-Blue cells overexpressing human TLR8, SEAP reporter, R848 15.9 μM. In short, it runs like this:
as §1
(A reporter such as luciferase makes a cellular process visible.)

The next assay addresses T3, human TLR9 (Homo sapiens, UniProt Q9NR96).
T3 construct: host or cells: HEK-Blue cells
T3 sequence (Q9NR96 26-1032): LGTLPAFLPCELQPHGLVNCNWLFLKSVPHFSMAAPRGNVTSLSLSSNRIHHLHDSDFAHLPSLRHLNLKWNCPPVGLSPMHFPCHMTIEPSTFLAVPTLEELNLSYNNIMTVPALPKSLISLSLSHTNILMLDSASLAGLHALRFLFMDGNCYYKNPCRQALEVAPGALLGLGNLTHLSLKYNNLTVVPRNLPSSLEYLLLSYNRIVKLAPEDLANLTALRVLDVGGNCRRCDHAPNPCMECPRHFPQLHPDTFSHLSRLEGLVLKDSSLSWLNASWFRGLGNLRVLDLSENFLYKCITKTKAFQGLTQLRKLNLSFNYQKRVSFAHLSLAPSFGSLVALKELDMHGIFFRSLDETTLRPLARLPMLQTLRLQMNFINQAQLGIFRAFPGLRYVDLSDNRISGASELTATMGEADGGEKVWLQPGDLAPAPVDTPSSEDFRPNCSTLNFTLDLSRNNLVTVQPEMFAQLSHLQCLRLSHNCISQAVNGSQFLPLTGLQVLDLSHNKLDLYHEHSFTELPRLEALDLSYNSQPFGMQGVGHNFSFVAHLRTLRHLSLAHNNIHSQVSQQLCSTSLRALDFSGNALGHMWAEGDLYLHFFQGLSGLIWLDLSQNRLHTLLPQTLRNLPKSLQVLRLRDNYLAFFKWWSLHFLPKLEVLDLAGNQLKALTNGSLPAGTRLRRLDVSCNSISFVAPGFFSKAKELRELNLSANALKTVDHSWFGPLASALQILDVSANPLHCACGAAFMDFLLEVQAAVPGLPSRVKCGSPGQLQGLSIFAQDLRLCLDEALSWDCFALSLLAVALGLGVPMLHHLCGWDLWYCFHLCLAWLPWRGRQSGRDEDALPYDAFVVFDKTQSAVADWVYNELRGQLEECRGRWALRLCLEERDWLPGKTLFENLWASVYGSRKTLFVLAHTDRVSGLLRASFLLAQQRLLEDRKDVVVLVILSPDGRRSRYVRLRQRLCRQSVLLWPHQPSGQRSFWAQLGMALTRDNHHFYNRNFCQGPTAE
Put plainly: TLR9 inhibition reporter assay (HEK-Blue cells, SEAP reporter, ODN2006 stimulation). As to conditions: HEK-Blue cells overexpressing human TLR9, SEAP reporter, ODN2006 5 nM. In short, it runs like this: as §1

Structures are written as SMILES.

The term IC50 denotes the concentration that gives 50% inhibition.

As to `Cc1cc(-c2[nH]c3ccc(C4CCCNC4)cc3c2C(C)C)cc(C)n1` (stereo not drawn) [Example 187], the IC50 at human TLR7 came to 2 nM; against human TLR8 it was 3.9 nM; against human TLR9 it was 274 nM.
Take `COc1cc(-c2[nH]c3ccc(C4CCC(N5CC(C)OC(C)C5)CC4)cc3c2C(C)C)cn2ncnc12` (stereo not drawn) [Example 41]: the IC50 at human TLR7 turned out to be 4 nM; against human TLR8, 7.7 nM; against human TLR9, 2280 nM.
`Cc1cc(-c2[nH]c3ccc(C4CN(CC(=O)N(C)C)CCO4)cc3c2C(C)C)cn2ncnc12` (stereo not drawn) [Example 306, 2-(2-(3-isopropyl-2-(8-methyl-[1,2,4]triazolo[1,5-a]pyridin-6-yl)-1H-indol-5-yl)morpholino)-N,N-dimethylacetamide]: the figures for the IC50 against human TLR7, on human TLR8 and at human TLR9 were 8 nM, 39 nM and above 50000 nM, respectively.
The like results for `COc1cc(-c2[nH]c3ccc(C4CC(NC(=O)CN(C)C)C4)cc3c2C(C)C)cn2ncnc12` (stereo not drawn) [Example 569] were, in that order, 0.32 nM, 0.62 nM and 4550 nM.
For `COc1cc(-c2[nH]c3ccc(C4CN(C(=O)CN(C)C)C(C)(C)CO4)cc3c2C(C)C)cn2ncnc12` (stereo not drawn) [Example 374], the IC50 worked out at 20 nM on human TLR7, 110 nM against human TLR8 and 5900 nM at human TLR9.
Regarding `Cc1cc(-c2[nH]c3ccc(C4CN(C(=O)CN(C)C)CCO4)cc3c2C(C)C)cn2ncnc12` (stereo not drawn) [Example 328, 2-(dimethylamino)-1-(2-(3-isopropyl-2-(8-methyl-[1,2,4]triazolo[1,5-a]pyridin-6-yl)-1H-indol-5-yl)morpholino)ethanone], the IC50 against human TLR7 amounted to 0.85 nM; against human TLR8, 8.2 nM; at human TLR9, 5490 nM.
`Cc1cc(-c2[nH]c3ccc(C4CNCCO4)cc3c2C(C)C)cn2ncnc12` (stereo not drawn) [Example 282]: the half-inhibitory concentration (IC50) on human TLR7 came out at 0.66 nM; at human TLR8 it was 1 nM; at human TLR9 it was 3800 nM.
The like results for `COc1cc(-c2[nH]c3ccc(C4CCCN(C(=O)C5CCN(C)CC5)C4)cc3c2C(C)C)cn2ncnc12` (stereo not drawn) [Example 194] were, in that order, 6 nM, 23 nM and 12000 nM.
Taken in the same sequence, the figures for `COc1cc(-c2[nH]c3ccc(C4CCC(NC(=O)CN5CCOCC5)CC4)cc3c2C(C)C)cn2ncnc12` (stereo not drawn) [Example 141] were 2 nM, 18 nM and 4320 nM.
For the compound `CCN(C)C1CCC(c2ccc3[nH]c(-c4cc(OC)c5ncnn5c4)c(C(C)C)c3c2)CC1` (single isomer, unassigned) [Example 66], the figures for the IC50 on human TLR7, on human TLR8 and on human TLR9 were 0.85 nM, 4.4 nM and 1170 nM, respectively.
The like results for `Cc1cc(-c2[nH]c3ccc(C4CN(CC(=O)N(C)C)CCO4)cc3c2C(C)C)cn2ncnc12` (single isomer, unassigned) [Example 316] were, in that order, 9 nM, 55 nM and above 50000 nM.
As to `COc1cc(-c2[nH]c3ccc(CC4CN(C(C)C)C4)cc3c2C(C)C)cn2ncnc12` [Example 433], the half-maximal inhibitory concentration (IC50) was determined as 2 nM against human TLR7, 3 nM against human TLR8 and 2190 nM against human TLR9.
The like results for `COc1cc(-c2[nH]c3ccc(C4CN(C(C)C)CCO4)cc3c2C(C)C)cn2ncnc12` (stereo not drawn) [Example 302] were, in that order, 2 nM, 0.42 nM and 2600 nM.
Turning to `COc1cc(-c2[nH]c3ccc(C4CCC(NCC(N)=O)CC4)cc3c2C(C)C)cn2ncnc12` (stereo not drawn) [Example 107], the IC50 against human TLR7 amounted to 0.22 nM; against human TLR8 it was 1.5 nM; at human TLR9, 1390 nM.
Turning to `COc1cc(-c2[nH]c3ccc(C4CCC(N(C)CCC(F)(F)F)CC4)cc3c2C(C)C)cn2ncnc12` (stereo not drawn) [Example 75], the IC50 stood at 0.87 nM against human TLR7, 2 nM on human TLR8 and 4760 nM on human TLR9.
With `Cc1cc(-c2[nH]c3ccc(C4CCCNC4)cc3c2C(C)C)ccn1` (stereo not drawn) [Example 185], the values for the IC50 at human TLR7, at human TLR8 and against human TLR9 were 18 nM, 1.9 nM and 1240 nM, respectively.
Take `CC(C)c1c(-c2ccnc3[nH]ncc23)[nH]c2ccc(C3CCCNCC3)cc12` (stereo not drawn) [Example 501]: the IC50 on human TLR7 was found to be 12 nM; at human TLR8, 4.3 nM; against human TLR9 it was 739 nM.
For `CNC(=O)CN1CC(c2ccc3[nH]c(-c4cc(OC)c5ncnn5c4)c(C(C)C)c3c2)C1` [Example 263], the IC50 at human TLR7 came to 2 nM; against human TLR8, 4 nM; at human TLR9, 3620 nM.
The like results for `Cc1cc(-c2[nH]c3ccc(C4CCC(NC5(C)COC5)CC4)cc3c2C(C)C)cn2ncnc12` (single isomer, unassigned) [Example 47] were, in that order, 2 nM, 7.5 nM and 4650 nM.
Taken in the same sequence, the figures for `COc1cc(-c2[nH]c3ccc(C4CCC(NC5(C)CC5)CC4)cc3c2C(C)C)cn2ncnc12` (stereo not drawn) [Example 42] were 0.2 nM, 1 nM and 2610 nM.
